Data published in ChEMBL document CHEMBL1201862, “PubChem BioAssay data set” (2004).
One block for each molecule: values may come before it. Calls of active or inactive are those of the source. Cut-off read from the data, not from the text of the source, for most assays here: actives have a measured IC50 and inactives only a lower limit.

Experiments:
[1] = molecular target: Troponin, cardiac muscle (Homo sapiens, UniProt P19429+P45379+P63316); experiment: Fluorescence-based biochemical high throughput dose response assay for activators of the calcium sensitivity of cardiac Regulated Thin Filaments (RTF). [Related pubchem assays (depositor defined):AID493008, AID493018, AID504382, AID504383]; assay type: protein-complex assay
[2] = molecular target: DNA dC->dU-editing enzyme APOBEC-3A (Homo sapiens, UniProt P31941); experiment: A3A deaminase inhibition for selectivity – biochemical, dose response (AID 504722); assay type: functional
[3] = molecular target: DNA dC->dU-editing enzyme APOBEC-3G (Homo sapiens, UniProt Q9HC16); experiment: Dose Response confirmation of small molecule APOBEC3G DNA Deaminase Inhibitors via a fluorescence-based single-stranded DNA deaminase assay. [Related pubchem assays (depositor defined):AID493012, AID493028]; assay type: functional
[4] = molecular target: Tumor necrosis factor (Homo sapiens, UniProt P01375); experiment: analog potency on TNFa NF-kB signaling – cell-based, revised, SAR follow-up (AID 2337); assay type: functional
[5] = molecular target: T1, Nucleotide-binding oligomerization domain-containing protein 1 (Homo sapiens, UniProt Q9Y239); experiment: blockers of NOD1 pathway activity – revised, SAR follow-up (AID 2333); assay type: functional
T1 sequence (Q9Y239 whole entry): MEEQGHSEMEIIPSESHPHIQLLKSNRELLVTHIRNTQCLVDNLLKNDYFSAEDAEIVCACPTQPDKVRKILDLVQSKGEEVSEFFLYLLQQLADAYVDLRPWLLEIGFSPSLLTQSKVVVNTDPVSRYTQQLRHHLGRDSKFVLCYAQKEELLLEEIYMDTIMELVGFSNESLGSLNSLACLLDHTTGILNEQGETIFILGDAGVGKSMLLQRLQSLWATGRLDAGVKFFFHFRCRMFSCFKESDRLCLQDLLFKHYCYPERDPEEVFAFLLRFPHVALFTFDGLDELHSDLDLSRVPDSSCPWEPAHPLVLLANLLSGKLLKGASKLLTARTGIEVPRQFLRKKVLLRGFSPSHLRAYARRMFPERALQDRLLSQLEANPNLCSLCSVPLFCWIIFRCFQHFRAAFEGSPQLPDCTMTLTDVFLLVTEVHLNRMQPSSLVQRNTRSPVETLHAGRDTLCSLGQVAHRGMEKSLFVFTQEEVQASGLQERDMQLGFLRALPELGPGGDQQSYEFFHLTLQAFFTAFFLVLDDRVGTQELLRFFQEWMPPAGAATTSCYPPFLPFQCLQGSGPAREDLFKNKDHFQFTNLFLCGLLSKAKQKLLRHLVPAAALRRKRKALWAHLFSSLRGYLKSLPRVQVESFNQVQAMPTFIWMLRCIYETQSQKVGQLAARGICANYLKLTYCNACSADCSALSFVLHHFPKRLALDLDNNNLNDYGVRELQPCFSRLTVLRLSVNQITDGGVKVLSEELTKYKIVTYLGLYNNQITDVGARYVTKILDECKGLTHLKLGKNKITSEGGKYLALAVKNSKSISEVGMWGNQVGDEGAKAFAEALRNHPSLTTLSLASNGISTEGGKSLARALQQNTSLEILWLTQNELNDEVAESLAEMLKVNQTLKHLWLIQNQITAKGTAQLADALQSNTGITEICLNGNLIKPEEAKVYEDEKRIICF

[6] = molecular target: Nucleotide-binding oligomerization domain-containing protein 2 (Homo sapiens, UniProt Q9HC29); experiment: PubChem AID 2334; assay type: functional
[7] = system: HEK293; experiment: cells; settings: Homo sapiens;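 note: cells exposed to compound for 14 hours overnight before viability readout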
[8] = molecular target: T2, Tyrosine-protein phosphatase non-receptor type 7 (Homo sapiens, UniProt P35236); experiment: redox-active compounds inhibiting HePTP phosphatase – biochemical, fluorescence, mechanism study (AID 2068); assay type: functional
T2 sequence (P35236 whole entry): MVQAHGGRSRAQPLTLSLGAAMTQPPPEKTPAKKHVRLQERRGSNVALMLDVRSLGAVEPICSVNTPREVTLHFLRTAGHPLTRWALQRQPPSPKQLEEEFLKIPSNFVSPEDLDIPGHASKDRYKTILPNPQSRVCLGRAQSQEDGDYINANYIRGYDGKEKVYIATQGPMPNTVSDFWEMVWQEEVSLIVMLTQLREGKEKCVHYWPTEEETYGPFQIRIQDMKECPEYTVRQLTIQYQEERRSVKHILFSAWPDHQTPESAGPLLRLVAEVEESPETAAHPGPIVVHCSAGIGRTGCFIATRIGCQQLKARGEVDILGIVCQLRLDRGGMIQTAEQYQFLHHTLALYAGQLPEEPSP

[9] = molecular target: Wee1-like protein kinase (Homo sapiens, UniProt P30291); experiment: HeLa cell cycle G2/M accumulation – FACS, mechanism study for Wee1 degradation inhibitor project, late-stage follow-up, panel member Wee1 Degradation (AID 2088)
[10] = molecular target: G2/mitotic-specific cyclin-B1 (Homo sapiens, UniProt P14635); experiment: HeLa cell cycle G2/M accumulation – FACS, mechanism study for Wee1 degradation inhibitor project, late-stage follow-up, panel member Cyclin B Degradation (AID 2088)
[11] = molecular target: Cyclin-dependent kinase 5/CDK5 activator 1 (Homo sapiens, UniProt Q00535); experiment: blockade of human CDK5 activity – biochemical, cherry-picked samples, set 2, dose response (AID 504545)
[12] = molecular target: T3, Corticotropin-releasing factor receptor 2/Corticotropin-releasing factor-binding protein (Homo sapiens, UniProt P24387+Q13324); experiment: Dose Response confirmation of uHTS hits for small molecule antagonists of the CRF-binding protein and CRF-R2 receptor complex.; assay type: functional; settings: read-out: IC50_Mean
T3 sequence (Q13324 whole entry): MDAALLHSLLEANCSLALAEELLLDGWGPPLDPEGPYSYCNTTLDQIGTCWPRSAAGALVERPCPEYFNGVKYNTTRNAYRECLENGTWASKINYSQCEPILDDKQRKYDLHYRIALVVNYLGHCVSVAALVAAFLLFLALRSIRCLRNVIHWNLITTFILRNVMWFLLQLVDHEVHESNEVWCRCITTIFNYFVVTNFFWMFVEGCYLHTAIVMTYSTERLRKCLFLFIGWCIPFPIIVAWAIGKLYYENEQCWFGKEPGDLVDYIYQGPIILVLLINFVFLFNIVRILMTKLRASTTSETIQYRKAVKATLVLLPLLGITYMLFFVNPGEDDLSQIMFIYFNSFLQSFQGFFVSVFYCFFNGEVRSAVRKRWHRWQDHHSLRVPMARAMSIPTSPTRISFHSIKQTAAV
T3 sequence (P24387 whole entry): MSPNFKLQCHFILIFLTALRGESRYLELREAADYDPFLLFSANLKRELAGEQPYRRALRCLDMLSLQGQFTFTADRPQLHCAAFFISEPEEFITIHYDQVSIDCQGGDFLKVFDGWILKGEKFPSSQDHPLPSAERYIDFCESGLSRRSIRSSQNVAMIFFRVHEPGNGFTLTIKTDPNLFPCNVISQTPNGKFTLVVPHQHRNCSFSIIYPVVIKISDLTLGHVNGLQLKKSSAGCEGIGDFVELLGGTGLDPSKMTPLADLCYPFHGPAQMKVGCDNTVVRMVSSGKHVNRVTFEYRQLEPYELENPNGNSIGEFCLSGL

[13] = molecular target: T3, Corticotropin-releasing factor receptor 2/Corticotropin-releasing factor-binding protein; experiment: activators of CRF receptor 2 with binding protein – uHTS hits, confirmation (AID 602473); assay type: functional; settings: read-out: EC50_Mean
[14] = molecular target: Melanin-concentrating hormone receptor 1 (Homo sapiens, UniProt Q99705); experiment: Late-stage fluorescence-based counterscreen for antagonists of the G-protein coupled receptor 7 (GPR7): cell-based dose response assay to identify antagonists of the melanin-concentrating hormone receptor 1 (MCHR1). [Related pubchem assays (depositor defined):AID1861, AID1880, AID1952, AID2148, AID2251, AID2257, AID485339]; assay type: functional;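 note: stimulated with 30 nM MCH peptide agonist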

EC50 [1]: > 71.5 µM (inactive)
Structure (SMILES): O=C(NC1CCCCC1)c1cc2nc3c(c(C(F)(F)F)n2n1)CCCC3

Structure (SMILES): CN(CC(=O)Nc1nnc(S)s1)S(=O)(=O)c1cccc2cccnc12
IC50 [2]: > 100 µM (inactive)
IC50 [3]: 1.95 µM (active)

Structure (SMILES): Cc1cc(C(=O)NC2CCCc3c2cnn3-c2ccccc2F)n(Cc2ccc(F)cc2)n1 (centres undefined)
IC50 [4]: > 20 µM (inactive)
IC50 [5]: > 20 µM (inactive)
IC50 [6]: > 20 µM (inactive)
IC50 [7]: > 20 µM (inactive)

IC50 [8]: 10.4 µM (active)
Structure (SMILES): CCOc1ccc(NC(=O)Nc2ccc3nc(-c4ccco4)c(-c4ccco4)nc3c2)cc1

EC50 [9]: > 49.7 µM (inactive)
EC50 [10]: > 49.7 µM (inactive)
Structure (SMILES): COc1ccc(C(=O)Nc2cc(C)nn2-c2nc(C)cc(O)n2)cc1

AC50 [11]: 39.9 µM (active)
IC50 [12]: > 47.1 µM (inactive)
EC50 [13]: > 53 µM (inactive)
Structure (SMILES): Nc1ccc2c(c1)C(=NO)c1ccccc1-2

IC50 [14]: 6.9 µM (active)
Structure (SMILES): COC(=O)c1cnn(-c2ccc(C(C)C)cc2)c(=O)c1Oc1ccc(OC)cc1
